From US11168073B2, “3,3-difluoroallylamines or salts thereof and pharmaceutical compositions comprising the same” (YUHAN CORPORATION, priority 2018, dated 2021)
Structures can show the parent of a compound that is named as a salt. Where two headings read alike, the source gives them in different places.

Tests used:
Assay type in all cases: biochemical
[1] = target: T1, recombinant human VAP-1 (Homo sapiens, UniProt Q16853); experiment: Activity evaluation on recombinant human VAP-1 (Amplex Red/HRP-coupled hydrogen peroxide assay, benzylamine substrate); conditions: read-out: Inhibitory Activity (IC50, nM) human VAP-1
T1 construct: purchased R&D systems
T1 sequence (Q16853 1-763): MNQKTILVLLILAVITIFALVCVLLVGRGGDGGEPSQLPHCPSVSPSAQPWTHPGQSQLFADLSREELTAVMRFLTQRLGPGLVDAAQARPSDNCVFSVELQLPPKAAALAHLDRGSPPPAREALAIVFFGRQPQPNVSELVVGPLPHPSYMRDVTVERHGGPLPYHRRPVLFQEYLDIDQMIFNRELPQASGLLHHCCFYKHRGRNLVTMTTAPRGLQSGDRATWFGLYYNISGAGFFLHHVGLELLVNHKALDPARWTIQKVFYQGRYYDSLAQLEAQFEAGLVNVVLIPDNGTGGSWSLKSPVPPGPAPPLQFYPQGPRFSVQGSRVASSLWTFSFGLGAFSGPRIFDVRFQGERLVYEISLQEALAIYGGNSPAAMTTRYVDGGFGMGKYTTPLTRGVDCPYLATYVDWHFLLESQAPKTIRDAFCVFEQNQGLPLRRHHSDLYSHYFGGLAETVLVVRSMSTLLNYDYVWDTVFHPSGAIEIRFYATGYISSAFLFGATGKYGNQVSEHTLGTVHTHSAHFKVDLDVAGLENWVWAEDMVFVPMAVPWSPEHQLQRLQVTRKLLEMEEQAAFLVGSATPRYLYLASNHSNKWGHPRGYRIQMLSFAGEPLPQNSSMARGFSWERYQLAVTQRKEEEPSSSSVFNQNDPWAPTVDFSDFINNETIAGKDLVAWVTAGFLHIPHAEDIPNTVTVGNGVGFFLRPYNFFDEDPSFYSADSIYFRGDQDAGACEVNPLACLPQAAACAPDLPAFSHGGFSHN
In short: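 Hydrogen peroxide from benzylamine (1 mM) oxidation by human recombinant VAP-1 detected via HRP-coupled Amplex Red (200 uM) fluorescence, kinetic over 1–2 h. Enzyme and compound preincubated 30 min at 37 °C, pH 7.4 phosphate; 8-point dose response, signal-rate decrease versus DMSO control fitted to four-parameter logistic for IC50.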

[2] = target: T2, recombinant human MAO-A (monoamine oxidase-A) (Homo sapiens, UniProt P21397); experiment: Activity evaluation on recombinant human MAO-A (Amplex Red/HRP-coupled assay, 0.5 mM tyramine substrate); conditions: read-out: Inhibitory Activity (IC50, nM) MAO-A
T2 construct: purchased Sigma-Aldrich
T2 sequence (P21397 1-527): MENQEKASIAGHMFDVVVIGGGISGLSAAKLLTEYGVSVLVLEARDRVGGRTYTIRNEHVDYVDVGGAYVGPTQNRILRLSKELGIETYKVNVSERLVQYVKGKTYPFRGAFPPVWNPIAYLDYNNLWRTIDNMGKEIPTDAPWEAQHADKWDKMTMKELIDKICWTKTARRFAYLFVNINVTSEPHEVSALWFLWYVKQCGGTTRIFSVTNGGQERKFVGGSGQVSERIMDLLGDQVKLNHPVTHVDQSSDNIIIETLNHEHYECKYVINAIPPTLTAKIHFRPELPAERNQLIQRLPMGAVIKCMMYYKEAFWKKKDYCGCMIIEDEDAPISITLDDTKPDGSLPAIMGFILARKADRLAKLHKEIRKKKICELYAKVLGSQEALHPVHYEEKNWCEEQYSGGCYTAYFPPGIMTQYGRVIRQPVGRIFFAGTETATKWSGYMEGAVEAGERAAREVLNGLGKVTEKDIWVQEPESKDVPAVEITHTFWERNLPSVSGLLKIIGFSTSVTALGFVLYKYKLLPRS
In short: (§1)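 Using an HRP-coupled Amplex Red readout (544/590 nm, kinetic over 1–2 h), IC50 values were fitted by 4-parameter logistic model to percent decrease in signal rate against DMSO control. Compounds (1:3 dilutions, 8 points, <1% DMSO) sat 30 min at 37 °C with enzyme in pH 7.4 phosphate buffer before substrate, 200 uM Amplex Red and HRP were added.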

[3] = target: T3, recombinant human MAO-B (monoamine oxidase-B) (Homo sapiens, UniProt P27338); experiment: Activity evaluation on recombinant human MAO-B (Amplex Red/HRP-coupled assay, 1 mM benzylamine substrate); conditions: read-out: Inhibitory Activity (IC50, nM) MAO-B
T3 construct: purchased Sigma-Aldrich
T3 sequence (P27338 1-520): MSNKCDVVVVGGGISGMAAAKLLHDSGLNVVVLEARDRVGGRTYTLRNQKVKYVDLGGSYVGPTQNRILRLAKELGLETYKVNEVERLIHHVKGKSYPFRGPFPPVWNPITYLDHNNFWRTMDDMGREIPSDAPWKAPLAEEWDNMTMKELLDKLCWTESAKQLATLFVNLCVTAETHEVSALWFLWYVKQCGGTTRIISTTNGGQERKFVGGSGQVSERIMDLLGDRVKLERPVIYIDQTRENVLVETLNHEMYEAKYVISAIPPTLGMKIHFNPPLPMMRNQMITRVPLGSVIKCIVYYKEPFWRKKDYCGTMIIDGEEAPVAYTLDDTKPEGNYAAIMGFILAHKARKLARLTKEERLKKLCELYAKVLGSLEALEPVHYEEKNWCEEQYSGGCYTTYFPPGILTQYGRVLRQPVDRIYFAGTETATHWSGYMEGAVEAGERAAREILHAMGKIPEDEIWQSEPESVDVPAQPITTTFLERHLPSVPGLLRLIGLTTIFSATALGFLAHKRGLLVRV
In short: as §1

[4] = target: T4, recombinant human DAO (diamine oxidase) (Homo sapiens, UniProt P19801); experiment: Activity evaluation on recombinant human DAO (Amplex Red/HRP-coupled assay, 1 mM putrescine substrate); conditions: read-out: Inhibitory Activity (IC50, nM) DAO
T4 construct: purchased R&D systems
T4 sequence (P19801 20-751): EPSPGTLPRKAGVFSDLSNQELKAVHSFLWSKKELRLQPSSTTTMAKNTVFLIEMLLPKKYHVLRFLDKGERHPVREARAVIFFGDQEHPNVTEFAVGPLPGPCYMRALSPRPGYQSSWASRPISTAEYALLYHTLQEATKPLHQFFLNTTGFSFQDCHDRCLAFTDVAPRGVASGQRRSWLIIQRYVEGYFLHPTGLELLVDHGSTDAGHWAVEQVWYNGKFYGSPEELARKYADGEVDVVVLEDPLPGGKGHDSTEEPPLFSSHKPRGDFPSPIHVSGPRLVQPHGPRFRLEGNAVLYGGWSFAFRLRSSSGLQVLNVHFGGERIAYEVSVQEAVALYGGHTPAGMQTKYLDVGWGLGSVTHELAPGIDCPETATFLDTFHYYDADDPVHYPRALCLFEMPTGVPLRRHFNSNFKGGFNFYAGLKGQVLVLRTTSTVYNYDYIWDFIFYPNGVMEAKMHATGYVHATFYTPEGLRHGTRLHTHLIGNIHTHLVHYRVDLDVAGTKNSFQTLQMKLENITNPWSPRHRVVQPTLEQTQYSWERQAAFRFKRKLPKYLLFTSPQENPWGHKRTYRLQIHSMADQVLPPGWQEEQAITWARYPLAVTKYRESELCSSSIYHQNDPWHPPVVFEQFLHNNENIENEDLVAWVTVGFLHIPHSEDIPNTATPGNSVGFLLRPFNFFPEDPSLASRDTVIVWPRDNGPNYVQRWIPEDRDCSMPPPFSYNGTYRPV
In short: as §1

[5] = recombinant human VAP-1, 30 min preincubation at 37° C., 1 mM benzylamine
[6] = recombinant human VAP-1, benzylamine substrate

SMILES: NCC(Cn1ncn(-c2ccnc(-c3ccc(N4CCNCC4)cc3)c2)c1=O)=C(F)F [Example 62, 2-[2-(aminomethyl)-3,3-difluoro-allyl]-4-[2-(4-piperazin-1-ylphenyl)-4-pyridyl]-1,2,4-triazol-3-one Ditrifluoroacetate]
- IC50 [1, 5]: 1.5 nM
- IC50 ([2]; 0.5 mM tyramine): > 100000 nM
- IC50 ([3]; 1 mM benzylamine): > 100000 nM
- IC50 ([4]; 1 mM putrescine): 160 nM

SMILES: NCC(Cn1ncn(Cc2ccc(C#Cc3ccc(N4CCOCC4)nc3)s2)c1=O)=C(F)F [Example 163, 2-[2-(aminomethyl)-3,3-difluoro-allyl]-4-[[5-[2-(6-morpholino-3-pyridyl)ethynyl]-2-thienyl]methyl]-1,2,4-triazol-3-one Trifluoroacetate]
- IC50 [1, 5]: 0.4 nM
- IC50 ([2]; 0.5 mM tyramine): > 100000 nM
- IC50 ([3]; 1 mM benzylamine): 31000 nM
- IC50 ([4]; 1 mM putrescine): 8400 nM

SMILES: Cc1cc(-c2cnn(C(C)C)c2)cnc1-n1cnn(CC(CN)=C(F)F)c1=O [Example 252, 2-[2-(aminomethyl)-3,3-difluoro-allyl]-4-[5-(1-isopropylpyrazol-4-yl)-3-methyl-2-pyridyl]-1,2,4-triazol-3-one Trifluoroacetate]
- IC50 [1, 6]: 1 nM
- IC50 ([2]; 0.5 mM tyramine substrate): > 100000 nM
- IC50 ([3]; 1 mM benzylamine substrate): 35000 nM
- IC50 ([4]; 1 mM putrescine substrate): 17000 nM

SMILES: NCC(Cn1ncn(Cc2ccc(C#Cc3cnc4c(c3)NCCO4)s2)c1=O)=C(F)F [Example 166, 2-[2-(aminomethyl)-3,3-difluoro-allyl]-4-[[5-[2-(2,3-dihydro-1H-pyrido[2,3-b][1,4]oxazin-7-yl)ethynyl]-2-thienyl]methyl]-1,2,4-triazol-3-one Ditrifluoroacetate]
- IC50 [1, 5]: 0.9 nM
- IC50 ([2]; 0.5 mM tyramine): > 10000 nM
- IC50 ([3]; 1 mM benzylamine): > 10000 nM
- IC50 ([4]; 1 mM putrescine): > 10000 nM

SMILES: NCC(Cn1ncn(-c2cccc(-c3ccc4c(c3)OCO4)c2)c1=O)=C(F)F [Example 21, 2-[2-(aminomethyl)-3,3-difluoro-allyl]-4-[3-(1,3-benzodioxol-5-yl)phenyl]-1,2,4-triazol-3-one Trifluoroacetate]
- IC50 [1, 5]: 2.5 nM
- IC50 ([2]; 0.5 mM tyramine): 36200 nM
- IC50 ([3]; 1 mM benzylamine): 18000 nM
- IC50 ([4]; 1 mM putrescine): 6300 nM

SMILES: CN1C(=O)CCc2cc(-c3ccc(CCn4cnn(CC(CN)=C(F)F)c4=O)s3)ccc21 [Example 179, 6-[5-[2-[1-[2-(aminomethyl)-3,3-difluoro-allyl]-5-oxo-1,2,4-triazol-4-yl]ethyl]-2-thienyl]-1-methyl-3,4-dihydroquinolin-2-one Trifluoroacetate]
- IC50 [1, 5]: 0.3 nM
- IC50 ([2]; 0.5 mM tyramine): > 100000 nM
- IC50 ([3]; 1 mM benzylamine): > 100000 nM
- IC50 ([4]; 1 mM putrescine): 290 nM

SMILES: CS(=O)(=O)c1ccc(-c2ccc(-n3cnn(CC(CN)=C(F)F)c3=O)cn2)cc1 [Example 38, 2-[2-(aminomethyl)-3,3-difluoro-allyl]-4-[6-(4-methylsulfonylphenyl)-3-pyridyl]-1,2,4-triazol-3-one Trifluoroacetate]
- IC50 [1, 5]: 0.4 nM
- IC50 ([2]; 0.5 mM tyramine): > 100000 nM
- IC50 ([3]; 1 mM benzylamine): 450 nM
- IC50 ([4]; 1 mM putrescine): 24 nM

SMILES: NCC(Cn1ncn(-c2cccc(-c3cccc(N4CCNCC4)c3)n2)c1=O)=C(F)F [Example 216, 2-[2-(aminomethyl)-3,3-difluoro-allyl]-4-[6-(3-piperazin-1-ylphenyl)-2-pyridyl]-1,2,4-triazol-3-one Ditrifluoroacetate]
- IC50 [1, 6]: 1.3 nM
- IC50 ([2]; 0.5 mM tyramine substrate): > 100000 nM
- IC50 ([3]; 1 mM benzylamine substrate): > 100000 nM
- IC50 ([4]; 1 mM putrescine substrate): 63 nM

SMILES: Cc1cc(-c2ccc(C(F)(F)F)nc2)cnc1-n1cnn(CC(CN)=C(F)F)c1=O [Example 70, 2-[2-(aminomethyl)-3,3-difluoro-allyl]-4-[3-methyl-5-[6-(trifluoromethyl)-3-pyridyl]-2-pyridyl]-1,2,4-triazol-3-one Trifluoroacetate]
- IC50 [1, 5]: 0.7 nM
- IC50 ([2]; 0.5 mM tyramine): > 100000 nM
- IC50 ([3]; 1 mM benzylamine): 5800 nM
- IC50 ([4]; 1 mM putrescine): 1500 nM

SMILES: Cc1c(-c2ccc3c(c2)CCC(=O)N3C)cccc1-n1cnn(CC(CN)=C(F)F)c1=O [Example 259, 6-[3-[1-[2-(aminomethyl)-3,3-difluoro-allyl]-5-oxo-1,2,4-triazol-4-yl]-2-methyl-phenyl]-1-methyl-3,4-dihydroquinolin-2-one Trifluoroacetate]
- IC50 [1, 6]: 1.3 nM
- IC50 ([2]; 0.5 mM tyramine substrate): > 100000 nM
- IC50 ([3]; 1 mM benzylamine substrate): > 100000 nM
- IC50 ([4]; 1 mM putrescine substrate): > 100000 nM

SMILES: Cc1c(-c2cnn(C(C)C)c2)cccc1-n1cnn(CC(CN)=C(F)F)c1=O [Example 262, 2-[2-(aminomethyl)-3,3-difluoro-allyl]-4-[3-(1-isopropylpyrazol-4-yl)-2-methyl-phenyl]-1,2,4-triazol-3-one Trifluoroacetate]
- IC50 [1, 6]: 7.4 nM
- IC50 ([2]; 0.5 mM tyramine substrate): > 100000 nM
- IC50 ([3]; 1 mM benzylamine substrate): > 100000 nM
- IC50 ([4]; 1 mM putrescine substrate): > 100000 nM

SMILES: NCC(Cn1ncn(Cc2cc(-c3cccc(-c4nc[nH]n4)c3)cs2)c1=O)=C(F)F [Example 196, 2-[2-(aminomethyl)-3,3-difluoro-allyl]-4-[[4-[3-(1H-1,2,4-triazol-3-yl)phenyl]-2-thienyl]methyl]-1,2,4-triazol-3-one Trifluoroacetate]
- IC50 [1, 6]: 1.4 nM
- IC50 ([2]; 0.5 mM tyramine substrate): > 100000 nM
- IC50 ([3]; 1 mM benzylamine substrate): 2900 nM
- IC50 ([4]; 1 mM putrescine substrate): 1900 nM
